In US20110289824A1, “COMPOUNDS, METHODS, AND DEVICES FOR DETECTING AND/OR TREATING INSECT INFESTATION” (priority 2010, published 2011):

Columns and labels:
[1] = system: Cimex lectularius (adults); experiment: Device choice test in arenas: treated device vs untreated control at 0.1 mg and 0.5 mg (Tables 4 and 5); assay type: in vivo; settings: 20 bugs per arena, against UTC device
Protocol: In this example, 20 Cimex lectularius (adults) were placed in plastic boxes (20×20 cm). The bottom of each box was covered with paper. A piece of folded filter paper served as a shelter for the Cimex lectularius bed bugs. The bed bugs were fed two days before they were put into the test-arenas. As set forth in Table 4, the ability of 2-Heptanone and 2-Heptanone-oxime to attract bed bugs at a concentration of 0.1 mg and 0.5 mg was evaluated. Device (A) includes 2-Heptanone, 2-Heptanone oxime, or both 2-Heptanone and 2-Heptanone oxime. Device (B) served as an untreated control. [table] […] The total number of bugs per arena was 20.

[2] = system: Cimex lectularius (adults); experiment: Device choice test in arenas: compound device vs mixture device vs untreated control (Tables 2 and 3); assay type: in vivo; settings: 1.0 mg of each compound per device (Device A), 20 bugs per arena, against mixture device and UTC
Protocol: The attraction, arresting, or aggregation of bed bugs from the species Cimex lectularius to cholesterol, 2-Heptanone, and 2-Heptanone oxime was evaluated in Tables 2 and 3 by the following methodology. In this example, 20 Cimex lectularius (adults) were placed in plastic boxes (20×20 cm). The bottom of each box was covered with paper. A piece of folded filter paper served as a shelter for the Cimex lectularius bed bugs. The bed bugs were fed two days before they were put into the test-arenas. As set forth in Table 2, three types of devices were compared: Device (A): a device containing cholesterol (Box 1), a device containing 2-Heptanone (Box 2), a device containing 2-Heptanone-oxime (Box 3), and a device containing 2-Heptanone and 2-Heptanone-oxime (Box 4); Device (B): a device containing a mixture of cholesterol, 2-Heptanone, and 2-Heptanone-oxime (Box 1-4); and Device (C) a device without an attractant, arresting, or aggregating compound, serving as a control (“UTC”). The concentrations of the compounds tested are as follows: Cholesterol—1% in ethanol, 0.1 ml per detection device (1 mg a.i.); 2-Heptanone—1% in ethanol, 0.1 ml per detection device (1 mg a.i.); and 2-Heptanone oxime—1% in ethanol, 0.1 ml per detection device (1 mg a.i.). [table] The number of bed bugs in the different devices and on the bottom of the arenas were counted at day 1, day 4, and day 7 after the start of the trial. The total number of bugs per arena was 20. The relative effectiveness of cholesterol, 2-Heptanone, and 2-Heptanone-oxime in attracting, arresting, or aggregating bed bugs was evaluated in Table 3.

**Q.** For `CCCCCC(C)=NO` [2-Heptanone-oxime, 2-Heptanone oxime], which “Number of bed bugs in the device (Compounds + concentrations)” value (from here on “Number … (Compounds + concentrations)”) ([1]; 0.1 mg per device, day 1) is on record?
**A.** Its value is 12.

**Q.** What about the “Number … (Compounds + concentrations)” value ([1]; 0.1 mg per device, day 3) of the same molecule?
**A.** Its value is 14.

**Q.** And the “Number … (Compounds + concentrations)” value ([1]; 0.1 mg per device, day 6)?
**A.** Its value is 15.

**Q.** What about the “Number … (Compounds + concentrations)” value ([1]; 0.5 mg per device, day 1) of the same molecule?
**A.** The value was 8.

**Q.** What about the “Number … (Compounds + concentrations)” value ([1]; 0.5 mg per device, day 3) of the same molecule?
**A.** The value was 11.

**Q.** And the “Number … (Compounds + concentrations)” value ([1]; 0.5 mg per device, day 6)?
**A.** The value was 12.

**Q.** What about the “Number of bed bugs in the device (Compounds)” value (shortened to “Number … (Compounds)”) ([2]; day 1) of the same molecule?
**A.** Its value is 13.

**Q.** And the “Number … (Compounds)” value ([2]; day 4)?
**A.** Its value is 13.

**Q.** What about the “Number … (Compounds)” value ([2]; day 7) of the same molecule?
**A.** Its value is 13.

**Q.** Which results are given for `CCCCCC(C)=O` [2-Heptanone]?
**A.** Number of bed bugs in the device (Compounds + concentrations) ([1]; 0.1 mg per device, day 1): 0; Number of bed bugs in the device (Compounds + concentrations) ([1]; 0.1 mg per device, day 3): 0; Number of bed bugs in the device (Compounds + concentrations) ([1]; 0.1 mg per device, day 6): 1; Number of bed bugs in the device (Compounds + concentrations) ([1]; 0.5 mg per device, day 1): 0; Number of bed bugs in the device (Compounds + concentrations) ([1]; 0.5 mg per device, day 3): 0; Number of bed bugs in the device (Compounds + concentrations) ([1]; 0.5 mg per device, day 6): 1; Number of bed bugs in the device (Compounds) ([2]; day 1): 2; Number of bed bugs in the device (Compounds) ([2]; day 4): 2; Number of bed bugs in the device (Compounds) ([2]; day 7): 2

**Q.** With `CC(C)CCC[C@@H](C)[C@H]1CC[C@H]2[C@@H]3CC=C4C[C@@H](O)CC[C@]4(C)[C@H]3CC[C@]12C` [Cholesterol, cholesterol] as the molecule, how does the “Number … (Compounds)” value ([2]; day 1) read?
**A.** Its value is 1.

**Q.** What about the “Number … (Compounds)” value ([2]; day 4) of the same molecule?
**A.** Its value is 1.

**Q.** And the “Number … (Compounds)” value ([2]; day 7)?
**A.** The value was 1.
